Laboratory results reported in ChEMBL document CHEMBL1201862, “PubChem BioAssay data set” (2004).
Values joined by “and” are separate entries in the source; they are usually repeats but may differ in a detail not shown here. Equal values may be shown once.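 Exposure lasted 48 hours, with cells grown in 96-well plates and compounds tested at five concentrations. Abbreviation: GI50, concentration required for 50% inhibition of growth.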 Active and inactive are the calls of the source. Rule as the data show it: active = GI50 up to about 1.1 µM and inactive = higher.

Tests used:
Assay in all cases: NCI tumour cell line growth inhibition, 48 h
A549 = test system: A549
ACHN = test system: ACHN
CAKI-1 = test system: CAKI-1
CCRF-CEM = test system: CCRF-CEM
DU-145 = test system: DU-145
EKVX = test system: EKVX
HCC 2998 = test system: HCC 2998
HCT-116 = test system: HCT-116
HL-60 = test system: HL-60
Hs-578T = test system: Hs-578T
IGROV-1 = test system: IGROV-1
K562 = test system: K562
M14 = test system: M14
MDA-N = test system: MDA-N
Malme-3M = test system: Malme-3M
NCI/ADR-RES = test system: NCI/ADR-RES
SF-268 = test system: SF-268
SK-OV-3 = test system: SK-OV-3
SR = test system: SR
UACC-62 = test system: UACC-62

Row | Compound | GI50 (A549) | GI50 (ACHN) | GI50 (CAKI-1) | GI50 (CCRF-CEM) | GI50 (DU-145) | GI50 (EKVX) | GI50 (HCC 2998) | GI50 (HCT-116) | GI50 (HL-60) | GI50 (Hs-578T) | GI50 (IGROV-1) | GI50 (K562) | GI50 (M14) | GI50 (MDA-N) | GI50 (Malme-3M) | GI50 (NCI/ADR-RES) | GI50 (SF-268) | GI50 (SK-OV-3) | GI50 (SR) | GI50 (UACC-62)
1 | Cc1cc(=O)oc2cc(OC(=O)Nc3ccc(Cl)c(Cl)c3)ccc12 | 24.8 µM (inactive) | 20.9 µM (inactive) | 38.3 µM (inactive) | 20.7 µM (inactive) | 25.3 µM (inactive) | 30.8 µM (inactive) | 19.4 µM (inactive) | 15.5 µM (inactive) | 18.5 µM (inactive) | 20.7 µM (inactive) | 20.2 µM (inactive) | 10.9 µM (inactive) | 22.6 µM (inactive) | 21.3 µM (inactive) | 23.1 µM (inactive) | 30.5 µM (inactive) | 38 µM (inactive) | 36.4 µM (inactive) | 19.7 µM (inactive) | 16 µM (inactive)
2 | c1csc(-c2nccc3c2[nH]c2ccccc23)c1 | 18.5 µM (inactive) | 24.5 µM (inactive) | 27.4 µM (inactive) | 21.2 µM (inactive) | 27.9 µM (inactive) | 46.6 µM (inactive) | 21.8 µM (inactive) | 16.3 µM (inactive) | 29.3 µM (inactive) | 46 µM (inactive) | 18.4 µM (inactive) | 25.6 µM (inactive) | 17.8 µM (inactive) | 17.5 µM (inactive) | 24.2 µM (inactive) | 22.2 µM (inactive) | 27 µM (inactive) | 14.2 µM (inactive) | 21 µM (inactive) | 30.2 µM (inactive)
3 | O=C(CCSC(CC(=O)c1ccc(Cl)cc1)c1ccc(Cl)cc1)Nc1ccc(Cl)cc1 (stereo not given) | 14.6 µM (inactive) | 14.4 µM (inactive) | 18.4 µM (inactive) | 2.09 µM (inactive) | 14 µM (inactive) | 12.7 µM (inactive) | 14 µM (inactive) | 5.86 µM (inactive) | 4.1 µM (inactive) | 26.3 µM (inactive) | 14.9 µM (inactive) | 4.06 µM (inactive) | 14.4 µM (inactive) | 9.68 µM (inactive) | 16.9 µM (inactive) | 15.5 µM (inactive) | 15.2 µM (inactive) | 20.7 µM (inactive) | 2.91 µM (inactive) | 10.2 µM (inactive)
4 | CC1=CC(C)C(C)N(CCNS(=O)(=O)c2ccc(C)cc2)c2ccccc21 (stereo not given) | 19.4 µM (inactive) | 15.8 µM (inactive) | 20.4 µM (inactive) | 13 µM (inactive) | 11.1 µM (inactive) | 16.4 µM (inactive) | 16.4 µM (inactive) | 12.9 µM (inactive) | 14 µM (inactive) | 12.9 µM (inactive) | 17 µM (inactive) | 14.7 µM (inactive) | 12.3 µM (inactive) | 12.5 µM (inactive) | 14.1 µM (inactive) | 15.2 µM (inactive) | 13 µM (inactive) | 29.6 µM (inactive) | 16 µM (inactive) | 12.2 µM (inactive)
5 | CN(C)CCOC1(Cc2ccc(F)cc2)CCC(C(C)(C)C)CC1 (stereo not given) | 9.77 µM (inactive) and 11.9 µM (inactive) | 11 µM (inactive) and 12.9 µM (inactive) | 6.47 µM (inactive) and 7.69 µM (inactive) | 3.19 µM (inactive) and 2.64 µM (inactive) | 9.2 µM (inactive) and 9.44 µM (inactive) | 11 µM (inactive) and 16 µM (inactive) | 2.96 µM (inactive) and 3.14 µM (inactive) | 4.39 µM (inactive) and 4.75 µM (inactive) | 2.84 µM (inactive) and 2.93 µM (inactive) | 11.7 µM (inactive) and 14 µM (inactive) | 11.1 µM (inactive) and 11.5 µM (inactive) | 2.03 µM (inactive) and 2.19 µM (inactive) | 1.67 µM (inactive) and 2.05 µM (inactive) | 3.2 µM (inactive) and 5.93 µM (inactive) | 4.38 µM (inactive) and 2.84 µM (inactive) | 12.9 µM (inactive) and 10.6 µM (inactive) | 12.4 µM (inactive) and 12.9 µM (inactive) | 14 µM (inactive) and 15.2 µM (inactive) | 2.63 µM (inactive) and 2.29 µM (inactive) | 4.36 µM (inactive) and 6.52 µM (inactive)
6 | CC1=CC[C@@]2(C)[C@@H]([C@@H]1C)[C@H]1CC[C@@H]3[C@@]4(C)CC[C@H](O)C(C)(C)[C@@H]4CC[C@@]3(C)[C@]1(C)C[C@@H]2O | 12.6 µM (inactive) | 9.62 µM (inactive) | 37.2 µM (inactive) | 5.38 µM (inactive) | 8 µM (inactive) | 5.61 µM (inactive) | 17.7 µM (inactive) | 22.2 µM (inactive) | 50.1 µM (inactive) | 37 µM (inactive) | 17.1 µM (inactive) | 4.2 µM (inactive) | 6.52 µM (inactive) | 32.4 µM (inactive) | 30.4 µM (inactive) | 21.8 µM (inactive) | 9.79 µM (inactive) | > 44.7 µM (inactive) | 3.46 µM (inactive) | > 45.8 µM (inactive)
7 | c1ccc(-c2cc3[nH]c4ccccc4[nH]c-3cc(-c3ccccc3)nn2)cc1 | 40.4 µM (inactive) | 24.9 µM (inactive) | 91.8 µM (inactive) | 49.3 µM (inactive) | 52.7 µM (inactive) | > 100 µM (inactive) | 40 µM (inactive) | 33.6 µM (inactive) | 20.6 µM (inactive) | 66.4 µM (inactive) | 32.1 µM (inactive) | > 100 µM (inactive) | > 100 µM (inactive) | > 100 µM (inactive) | 62.4 µM (inactive) | > 100 µM (inactive) | 53 µM (inactive) | 17.7 µM (inactive) | 96.2 µM (inactive) | > 100 µM (inactive)
8 | COc1cc(NS(C)(=O)=O)ccc1Nc1c2ccccc2nc2c1[nH]c1ccc(NC3OC(CO)C(O)C(O)C3O)cc12 (stereo not given) | < 0.0134 µM (active) | < 0.0161 µM (active) | < 0.01 µM (active) | < 0.0132 µM (active) | 0.0281 µM (active) | 0.782 µM (active) | 0.169 µM (active) | 0.0472 µM (active) | 0.0153 µM (active) | 0.518 µM (active) | 0.248 µM (active) | 0.191 µM (active) | 0.0399 µM (active) | 0.474 µM (active) | 0.0468 µM (active) | 2.39 µM (inactive) | 0.018 µM (active) | 0.0173 µM (active) | < 0.01 µM (active) | 0.0213 µM (active)
9 | Cc1ccc2c(c1)C(C1Cc3cccc(C)c3C1=O)OC2=O (stereo not given) | > 100 µM (inactive) | > 100 µM (inactive) | > 100 µM (inactive) | > 100 µM (inactive) | > 100 µM (inactive) | 67.6 µM (inactive) | > 100 µM (inactive) | > 100 µM (inactive) | 35.8 µM (inactive) | > 100 µM (inactive) | > 100 µM (inactive) | 84.3 µM (inactive) | > 100 µM (inactive) | > 100 µM (inactive) | > 100 µM (inactive) | > 100 µM (inactive) | > 100 µM (inactive) | > 100 µM (inactive) | 60.8 µM (inactive) | 94.6 µM (inactive)
10 | O=[N+]([O-])/C(C(Cl)=C(Cl)Cl)=C(/Sc1ccccc1)N1CCCCC1 | > 93.5 µM (inactive) | > 100 µM (inactive) | > 22.9 µM (inactive) | 4.74 µM (inactive) | > 53.2 µM (inactive) | > 91.4 µM (inactive) | > 100 µM (inactive) | 37.8 µM (inactive) | 2.24 µM (inactive) | 67 µM (inactive) | 16.5 µM (inactive) | 23.9 µM (inactive) | > 69.2 µM (inactive) | > 61.5 µM (inactive) | 19.8 µM (inactive) | > 100 µM (inactive) | > 45.6 µM (inactive) | 34.1 µM (inactive) | 2.79 µM (inactive) | 13.9 µM (inactive)
11 | Cc1ccc(CNNC(=O)c2cc[n+]([BH2-]C#N)cc2)cc1 | 95.7 µM (inactive) | 11.3 µM (inactive) | > 100 µM (inactive) | 26.3 µM (inactive) | > 100 µM (inactive) | 87.7 µM (inactive) | > 100 µM (inactive) | > 100 µM (inactive) | 83.8 µM (inactive) | 48.5 µM (inactive) | > 100 µM (inactive) | 49.2 µM (inactive) | > 100 µM (inactive) | > 100 µM (inactive) | > 100 µM (inactive) | > 100 µM (inactive) | > 100 µM (inactive) | > 100 µM (inactive) | > 100 µM (inactive) | 17.1 µM (inactive)
12 | Oc1cccc2ccc(SSc3ccc4cccc(O)c4n3)nc12 | 31 µM (inactive) | 15.1 µM (inactive) | 18.5 µM (inactive) | 3.36 µM (inactive) | 73.1 µM (inactive) | 29.3 µM (inactive) | 5.56 µM (inactive) | 18.2 µM (inactive) | 22.8 µM (inactive) | 31.4 µM (inactive) | 24.7 µM (inactive) | 29.2 µM (inactive) | 16 µM (inactive) | 17.5 µM (inactive) | 16 µM (inactive) | 26.1 µM (inactive) | 25.3 µM (inactive) | 16.3 µM (inactive) | 23.9 µM (inactive) | 17.4 µM (inactive)
13 | Oc1ccc(-c2cc(-c3cc(-c4ccc(O)cc4)no3)on2)cc1 | 50 µM (inactive) | 2.81 µM (inactive) | 56.6 µM (inactive) | 0.873 µM (active) | 5.09 µM (inactive) | 26.5 µM (inactive) | > 63.4 µM (inactive) | 45.3 µM (inactive) | 3.36 µM (inactive) | > 100 µM (inactive) | 43.7 µM (inactive) | 1.75 µM (inactive) | > 32.4 µM (inactive) | 36.9 µM (inactive) | 46.1 µM (inactive) | > 100 µM (inactive) | 41.2 µM (inactive) | > 100 µM (inactive) | 19.1 µM (inactive) | 1.16 µM (inactive)
